Experimental findings from US10221215B2, “Hydrogen bond surrogate macrocycles as modulators of Ras” (New York University, priority 2011, dated 2019) are described below.

The nature of the series: Solubility of peptides and HBS helices. It counts as physicochemical. The protocol:
Design of Ras/Sos inhibitors was performed starting with the wild-type Sos929-944 α-H sequence. Additional modifications were introduced in order to improve the solubility of the HBS peptides. Charged residues were introduced at positions not involved in Ras binding. Computational alanine scanning was performed on two separate crystal structures (PDB codes: 1NVW and 1BKD) of the Ras/Sos complex to determine other important binding residues in the α-H helix that may be incorporated in the peptide mimetics. Additionally, non-essential β-branched residues (including threonine) in the wild-type α-H sequence were replaced with suitable residues to afford peptides with higher helical content (Table 1), as it was hypothesized that such modifications would improve α-helicity.

As to “Ac-FGEGIYRTDILRTEEGN-NH2 (N-terminus assumed) [Peptide 2]”, the Solubility result was “partially”.
